Measurements reported in paper PMC11931445, “A Novel Compound QO‐83 Alleviates Acute and Chronic Epileptic Seizures in Rodents by Modulating KV7 Channel Activity” (CNS Neuroscience & Therapeutics, 2025).

Tests used:
[1] = system: liver tissue; assay: Liver toxicity, 28 days gavage; assay type: in vivo, KM mice; details: for liver-body weight ratio compared to control: QO-83 20, Flupirtine 20, APAP 200 mg/kg/d
Method: Twenty-four KM mice, half male and half female, weighing between 18 and 22 g, were randomly divided into four groups, each consisting of six mice: a control group, an acetaminophen (APAP) group, a flupirtine (FM) group, and a QO-83 group. The treatment lasted for 28 days, and the drug solvent was a 0.8% sodium carboxymethyl cellulose solution. The control group received an equal amount of 0.8% sodium carboxymethyl cellulose solution. A single dose was administered to each group via gavage, and the dosage volume was calculated based on the body weight of the mice. The control group received 0.8% sodium carboxymethyl cellulose solution, the APAP group received acetaminophen at 200 mg/kg/d, the FM group received […] at 20 mg/kg/d, and the QO-83 group received QO-83 at 20 mg/kg/d. After 28 days of administration, the liver was isolated, fixed in 4% paraformaldehyde for at least 24 h, routinely embedded in paraffin, and sectioned into 3–5 μm continuous slices. Hematoxylin-eosin (HE) staining was performed to observe the pathological structure of the tissue. After staining with HE, the tissue was dehydrated using an alcohol gradient, cleared, and mounted for the observation of liver lesions under a light microscope.

[2] = system: L02 cells; assay: MTT cytotoxicity; assay type: cell-based, human; details: 100 μM; 24h and 48h
Method: Normal human liver L02 cells were cultured in RPMI-1640 complete medium and maintained in a humidified incubator at 37°C with 5% CO2. Cell status was observed daily, and the medium was changed every 1–2 days. During the experiment, cells in good condition and in the logarithmic growth phase were selected. After digestion and collection, the cells were evenly suspended, and the cell suspension concentration was adjusted to 5×10^4 cells/mL. A volume of 150 μL was inoculated per well in a 96-well plate, leaving the surrounding wells for the addition of sterilized PBS (100 μL per well) to prevent edge effects. The plate was then placed in an incubator for further incubation. After 12 h of culturing to allow cell adhesion, the culture medium was aspirated from the 96-well plate. Based on the control, QO-83 was added at concentrations of 0.1 μM, 0.3 μM, 1 μM, 3 μM, 10 μM, 30 μM, and 100 μM, along with Flupirtine (100 μM) in a concentration gradient of 150 μL per well, with six replicates for each group. The control group served as the normal control. The cultures were incubated for 24 and 48 h, respectively. After this period, the culture medium was removed, and 50 μL of 5 mg/mL MTT solution was added to each well, followed by continued incubation for 4 h. […] Finally, the absorbance was measured using a microplate reader (preheated for at least 15 min) at a wavelength of 490 nm.

[3] = target: T1, KV7.2 (Homo sapiens, UniProt O43526); assay: Manual patch clamp, KV7 currents; assay type: cell-based; details: 20 μM XE991
T1 construct: expressed in transfected cells
Method: Pipettes (1–6 MΩ) were filled with a solution of KCl (145 mM), MgCl2 (1 mM), HEPES (10 mM), and EDTA (5 mM). The pH was adjusted to 7.2 with NaOH. Electrophysiological measurements were obtained using an AXON Multiclamp 700 B patch‐clamp amplifier. The bath solution contained NaCl (144 mM), KCl (5 mM), MgCl2 (1 mM), CaCl2 (2 mM), and D‐glucose (10 mM), with the pH adjusted to 7.4 using NaOH. The protocol involved an increase in voltage from −120 mV to 40 mV in increments of 10 mV to evoke a series of KV7 currents (1000 ms per pulse) in the bath solution. For details on cell culture, please see Appendix S1 2.2.1.
Statistical differences between multiple groups (mean ± SEM) were compared using one‐ or two‐way ANOVA. Electrophysiological data were analyzed using SPSS version 21 and OriginPro (version 9.1.0). P Peak inward currents obtained from activation protocols were calculated using the following equation: G = I/(Vm‐EK), where G is conductance, I is peak inward current, Vm is instantaneous membrane potential, and EK is equilibrium potential for the […] channel. Conductance data were normalized using maximum conductance and further fitted to the Boltzmann equation: G=Gmax+Gmin−Gmax/1+expVm−V1/2/k , where G is conductance, V1/2 is midpoint of activation, and k is slope factor. The “Spectrum” module of LabChart was used for data analysis of EEG signals, including the calculation of power density and averaging power spectral density (PSD).
Stable Chinese Hamster Ovary (CHO) cell lines expressing specific Kv7 channel subtypes, including KV7.2 and KV7.2/7.3, were cultured in Minimum Essential Medium (MEM) supplemented with 10% fetal calf serum, 1× nonessential amino acids, […], and […] hygromycin B. Concurrently, KV7.4 and KV7.5 channels were stably expressed in Human Embryonic Kidney 293A (HEK293A) cell lines and nurtured in Dulbecco's Modified Eagle Medium (DMEM) high glucose medium supplemented with 10% fetal bovine serum (FBS), […], and […] hygromycin B.

[4] = system: pilocarpine-induced seizures; assay: Pilocarpine-induced status epilepticus model with EEG; assay type: in vivo, Sprague–Dawley (SD) rats
Source text: For animal experiments, we used adult male Sprague–Dawley (SD) rats weighing between 240 and 260 g. Isoflurane anesthesia was used for all operations. Rats were secured in a stereotaxic frame, and the anterior fontanelle was marked 3 mm posteriorly. Additionally, marks were made approximately 3 mm lateral to the midline on both sides to indicate the insertion points for the positive and negative electrodes. A ground electrode was placed subcutaneously in the occipital lobe to eliminate recording noise. Postoperatively, each animal was housed separately in a single cage and provided food and water ad libitum. After a 3‐day adaptation period, electroencephalograms (EEG) were recorded.
The experimental procedure commenced with an intraperitoneal injection of lithium chloride (127 mg/kg). After 24 h, subcutaneous scopolamine methyl nitrate (1 mg/kg) was administered. […] Twenty minutes later, status epilepticus (SE) was induced by administering pilocarpine (100 mg/kg, i.p.). SE was terminated 2 h later by administering 10% chloral hydrate.
The Pilo group, 2 mg/kg XE991 group, and 2 mg/kg XE991 + 1 mg/kg QO‐83 group received an intraperitoneal injection of lithium chloride (127 mg/kg) 24 h prior to testing. Following this, scopolamine methyl nitrate (1 mg/kg) was administered […], and after 10 min, each group was treated with 25% beta‐cyclodextrin, 2 mg/kg XE991, or 2 mg/kg XE991, respectively. After 15 min, 25% beta‐cyclodextrin, 25% beta‐cyclodextrin, or 1 mg/kg QO‐83 was administered. Finally, 25 min later, pilocarpine (100 mg/kg, i.p.) was administered to induce seizures.
Seizure severity was assessed using a standardized scale ranging from 1 to 5, adapted from previous research criteria. Stage 1 encompasses mouth and facial movements, including wet dog shakes. Stage 2 involves head nodding. Stage 3 is characterized by unilateral forelimb clonus. […] Finally, stage 5 manifests as clonus of all limbs accompanied by falling.

SMILES | liver tissue pathology (HE staining) ([1]; QO-83 20 mg/kg/d, APAP 200 mg/kg/d) | liver-body weight ratio compared to control [1] | effect on cell viability (MTT) [2] | effect on QO-83-induced increase in KV7.2 channel current [3] | effect on EEG power density (0–50 Hz and δ, θ, α, β bands) ([4]; 2 mg/kg XE991, compared to PILO group) | seizure grade versus model group ([4]; 2 mg/kg XE991 alone) | seizure latency ([4]; 2 mg/kg XE991 alone, Pilo model 22.73 ± 6.03 min)
CC(=O)Nc1ccc(O)cc1 [APAP, Acetaminophen] | significant pathological changes | increased significantly | – | – | – | – | –
CCOC(=O)Nc1ccc(NCc2ccc(F)cc2)nc1N [Flupirtine] | – | increased significantly | significantly inhibited cell viability | – | – | – | –
O=C1c2ccccc2C(Cc2ccncc2)(Cc2ccncc2)c2ccccc21 [XE991] | – | – | – | significantly inhibited the increase in KV7.2 channel current | significantly increased the power density | No significant differences | 8.52 ± 4.73 min
